We go through six compounds from EP3315495A1, “N,N' -[…], N,N' -DIAR[…] N,N' -DIARY[…] FOR USE IN TREATMENT AND PREVENTION OF INFLAMMATORY DISEASE” (Universität Innsbruck, priority 2016, dated 2018).

Structures are written as SMILES. Like-named read-outs stand apart in the source and are kept apart here.

Assay [1] relates to 5-LOX product formation in PMNL. Put plainly: 5-LOX product formation in PMNL stimulated with A23187 (cell-based). Also on record: species or system human. To be noted: for inhibition at 10 µM: read-out: Effect on 5-LOX product formation in PMNL, % inhibition; for IC50: read-out: Effect on 5-LOX product formation in PMNL, IC50. The protocol: Briefly, first a cell-based assay allows to determine the inhibition of the 5-LOX product biosynthesis. The cell suspension contained human neutrophils (PMNL) or monocytes, wherein the cells were isolated from buffy coats obtained from healthy donors pooled by gender. An aliquot cell suspension was incubated with the candidate compound for 15 min at 37 °C. The cells are treated with calcium ionophore A23187 to stimulate 5-LOX product formation for further 10 min (37 °C), optionally in presence of various concentrations of AA. The reaction was stopped with 1 mL methanol on ice.
(§1) In both assays, product quantification was conducted with RP-HPLC and UV detection after solid phase extraction and addition of 200 ng prostaglandin B1 as internal standard.

Assay [2] has as its target T1, sEH (Homo sapiens, UniProt P34913).
T1 sequence (P34913 1-555): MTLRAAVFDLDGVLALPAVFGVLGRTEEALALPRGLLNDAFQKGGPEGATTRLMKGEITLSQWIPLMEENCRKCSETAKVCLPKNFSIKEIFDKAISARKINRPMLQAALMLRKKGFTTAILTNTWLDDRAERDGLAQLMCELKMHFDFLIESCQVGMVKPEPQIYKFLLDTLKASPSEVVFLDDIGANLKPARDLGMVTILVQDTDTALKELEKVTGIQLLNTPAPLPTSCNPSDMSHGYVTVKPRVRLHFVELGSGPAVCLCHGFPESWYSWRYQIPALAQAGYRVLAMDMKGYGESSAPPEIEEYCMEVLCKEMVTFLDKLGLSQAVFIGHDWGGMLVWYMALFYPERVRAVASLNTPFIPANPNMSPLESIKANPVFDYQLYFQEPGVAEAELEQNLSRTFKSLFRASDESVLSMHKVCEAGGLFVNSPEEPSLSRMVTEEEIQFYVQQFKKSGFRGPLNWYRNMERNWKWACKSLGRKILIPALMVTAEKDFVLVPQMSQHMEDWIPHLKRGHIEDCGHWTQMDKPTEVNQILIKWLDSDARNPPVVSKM
The assay can be described thus: biochemical. The following applies: read-out: Effect on sEH activity, % inhibition.
Protocol: (§2) In brief, sEH was expressed in transfected Sf9-cells. Isolation of sEH from the cell pellet was conducted with a benzylthiosepharose matrix. […] The reaction was stopped with ZnSO4 (0.2 M) after 60 min incubation. […] Inhibitors were tested for self fluorescence. Positive controls were AUDA (12-(3-adamantan-1-yl-ureido)dodecanacid) and DCU (N,N'-dicyclohexylurea) at 10 µM.

Assay [3] deals with T2, FLAP (Homo sapiens, UniProt P20292).
T2 sequence (P20292 1-161): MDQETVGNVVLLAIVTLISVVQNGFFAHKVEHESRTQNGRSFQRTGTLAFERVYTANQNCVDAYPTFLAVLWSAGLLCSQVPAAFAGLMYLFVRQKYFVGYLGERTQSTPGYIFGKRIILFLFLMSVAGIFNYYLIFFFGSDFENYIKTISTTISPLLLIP
To be noted: active = inhibition of product formation in cells without 5-LOX activity in the cell-free assay.
Protocol: The enzyme was preincubated for 15 min with the potential inhibitor on ice and subsequently exposed to 2 mM CaCl2 and 20 µM AA for 10 min at 37°C.
Effect on 5-LOX product formation and sEH activity is determined as described above. In case of observed effect on 5-LOX product formation in the cellular assay, 5-LOX activity was investigated with isolated 5-LOX.

For assay [4], the target named is T3, isolated 5-LOX (Homo sapiens, UniProt P09917).
T3 construct: made in house; host or cells: E. coli
T3 sequence (P09917 1-674): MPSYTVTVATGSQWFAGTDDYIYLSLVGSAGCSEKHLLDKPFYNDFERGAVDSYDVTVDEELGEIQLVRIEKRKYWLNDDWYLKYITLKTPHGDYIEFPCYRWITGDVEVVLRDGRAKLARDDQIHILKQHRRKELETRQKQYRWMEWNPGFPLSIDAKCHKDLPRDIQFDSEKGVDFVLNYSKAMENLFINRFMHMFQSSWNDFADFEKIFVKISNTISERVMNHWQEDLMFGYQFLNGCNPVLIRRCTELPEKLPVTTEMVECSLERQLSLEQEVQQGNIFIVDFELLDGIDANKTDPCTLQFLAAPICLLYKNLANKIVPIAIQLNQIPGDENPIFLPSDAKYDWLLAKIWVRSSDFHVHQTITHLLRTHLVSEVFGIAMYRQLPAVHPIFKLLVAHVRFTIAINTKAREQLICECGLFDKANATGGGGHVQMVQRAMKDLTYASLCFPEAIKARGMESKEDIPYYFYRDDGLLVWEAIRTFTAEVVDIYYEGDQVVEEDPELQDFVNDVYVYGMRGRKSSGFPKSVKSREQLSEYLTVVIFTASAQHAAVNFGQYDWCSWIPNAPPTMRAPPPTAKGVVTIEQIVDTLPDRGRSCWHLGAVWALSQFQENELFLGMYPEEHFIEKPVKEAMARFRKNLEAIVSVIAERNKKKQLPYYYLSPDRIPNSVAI
Put plainly: FLAP-independent cell-free enzymatic assay with isolated recombinant 5-LOX. The format is biochemical. To be noted: for inhibition at 10 µM: read-out: Effect on isolated 5-LOX, % inhibition. As for the experimental part: as §1

In assay [5] the target is T1, sEH. The following applies: at 0.1 µM.
Protocol: as §2

As for `Cc1cc(OCc2nc3ccccc3n2C(=O)OC(C)(C)C)ccc1NC(=S)Nc1ccc(Cl)c(Cl)c1` [EZ15, N-[4-(1-tert.-Butoxycarbonyl-1H-benzimidazol-2-ylmethoxy)-2-methylphenyl]-N'-(3,4-dichlorophenyl)-thiourea], the inhibition at 10 µM in assay [1] (Homo sapiens, PMNL, at 10 µM) was about 39%; in assay [2] it was about 66%; in assay [4] (at 10 µM), about 33%. Further, the “Effect on FLAP activity” value in assay [3] was “inactive”.
On to `CC(C)(C)OC(=O)n1c(COc2ccc(NC(=S)Nc3ccc(Cl)c(Cl)c3)cc2)nc2ccccc21` [EZ20, N-[4-(1-tert.-Butoxycarbonyl-1H-benzimidazol-2-ylmethoxy)-phenyl]-N'-(3,4-dichlorophenyl)-thiourea], for which the inhibition at 10 µM in assay [1] (Homo sapiens, PMNL) is -65%; in assay [4], about 39%. The inhibition at 0.1 µM in assay [2] is about 39%. Besides, the “Effect on FLAP activity” value in assay [3] was “inactive”.
In the case of `Cc1cc(OCc2nc3ccccc3[nH]2)ccc1NC(=S)Nc1ccc(Cl)c(Cl)c1` [EZ17, N-[4-(1H-Benzimidazol-2ylmethoxy)-2-methylphenyl]-N'-(3,4-dichlorophenyl)-thiourea], the IC50 in assay [1] (Homo sapiens, PMNL) came to 820 nM. The results for the inhibition at 10 µM in assay [2] and in assay [4] (at 10 µM) were about 64% and 65%, respectively. For the same compound, the “Effect on FLAP activity” value in assay [3] is “active”.
For the compound `CC(C)(C)OC(=O)n1c(COc2ccc(NC(=O)Nc3ccc(Cl)c(Cl)c3)cc2)nc2ccccc21` [EZ18, N-[4-(1-tert.-Butoxycarbonyl-1H-benzimidazol-2-ylmethoxy)-phenyl]-N'-(3,4-dichlorophenyl)-urea], the inhibition at 10 µM in assay [1] (Homo sapiens, PMNL, at 10 µM) was about 40%; in assay [4] (at 10 µM), about 22%. In assay [2], the inhibition at 0.1 µM was about 67%.
For the compound `S=C(Nc1ccc(OCc2nc3ccccc3[nH]2)cc1)Nc1ccc(Cl)c(Cl)c1` [EZ21, N-[4-(1-H-Benzimidazol-2-ylmethoxy)-phenyl]-N'-(3,4-dichlorophenyl)-thiourea], in assay [1] (Homo sapiens, PMNL), the IC50 amounted to 690 nM. For the same compound, the inhibition at 10 µM in assay [2] was about 54%; in assay [4] (at 10 µM), 87%.
For `O=C(Nc1ccc(OCc2nc3ccccc3[nH]2)cc1)Nc1ccc(Cl)c(Cl)c1` [EZ19, N-[4-(1-H-Benzimidazol-2-ylmethoxy)-phenyl]-N'-(3,4-dichlorophenyl)-urea], the IC50 in assay [1] was determined as 550 nM. The “Effect on sEH activity, % inhibition” value in assay [5] is listed as “∼52 % inhibition at 0.1 µM”. The “Effect on FLAP activity” value in assay [3] is “active”. In addition, the “Effect on isolated 5-LOX, % inhibition” value in assay [4] (at 10 µM) is “∼33 % inhibitio n at 10 µM”.
